{
  "source": "patent EP2319525A1",
  "about": "“Composition for treating insulin resistance” (Universitätsklinikum Hamburg-Eppendorf, priority 2009, dated 2011)",
  "type_in_all_cases": "cell-based, rodent",
  "key": {"L6 myotubes [1]": {"tested_on": "L6 myotubes", "assay": "Uptake of H-3-labeled 2-Deoxy-D-glucose in differentiated L6 myotubes, short-term incubation (20 min + 10 min)", "experimental": "(§1) The data presented below were generated in the rodent myoblast cell line L6 (ATCC #CRL-1458). […] L6 myotubes express both the AT-1 and the AT-2 receptor at relevant levels making these cells an ideal model to test the interference of both receptors with basal and insulin-mediated glucose uptake. L6 myoblasts were maintained as proliferating myoblasts in DMEM high glucose medium supplemented with 10% FCS, 4 mM L-glutamine, 1 mM pyruvate at 37°C in the presence of 5% CO2. The seeding density used for the experiments was 2 x 10^4 cells/cm^2 on 1% gelatincoated dishes. To induce differentiation of myoblasts into myotubes, 90-100% confluent cultures (cultured on standard 6-well plates) were switched to DMEM supplemented with 2% adult horse serum. Myoblast growth and myotube formation were examined using phase-contrast microscopy. The medium was changed every 2 days, and differentiation was allowed to continue for 10 days before the experimentation period.\n(§2) L6 myotubes (n=9-12) cultured as described in example 1 were incubated either with angiotensin II (10^-7 mol/l), with a combination of angiotensin II (10^-7 mol/l) and AT-1 receptor blocker losartan (10^-7 mol/L), or with a combination of angiotensin II (10^-7 mol/l), losartan (10^-7 mol/L) and AT-2 receptor blocker PD 123319 (10^-7 mol/L). The uptake of H-3-labeled 2-Deoxy-D-glucose (GE Healthcare Biosciences), which cannot undergo further glycolysis, was measured as follows: • H-3-labeled 2-Deoxy-D-glucose uptake in the differentiated myotubes was analysed as described previously (Ceddia et al., Diabetologia (2005); 48 (1) :132-9) with minor modifications. Differentiated myotubes were serum-starved overnight in DMEM containing 1% glucose before being incubated with angiotensin II, the AT-1 receptor blocker losartan, and/or the AT-2 receptor blocker PD123319. […] Cell lysates were transferred to scintillation vials for radioactivity counting. Non-specific uptake was determined in the presence of cytochalasin B (10 µmol/L) and was subtracted from all values. […]"}, "L6 myotubes [2]": {"tested_on": "L6 myotubes", "assay": "Long-term (24 hours) stimulation: basal and insulin-mediated uptake of H-3-labeled 2-Deoxy-D-glucose in L6 myotubes", "experimental": "as §1, §2"}, "L6 myotubes [3]": {"tested_on": "L6 myotubes", "assay": "Uptake of H-3-labeled 2-Deoxy-D-glucose in differentiated L6 myotubes, short-term incubation (20 min + 10 min)", "details": "CGP-42112A 10^-8 mol/L, alone and in combination with losartan 10^-7 mol/L", "experimental": "The data presented below were generated in the rodent myoblast cell line L6 (ATCC #CRL-1458). […] L6 myotubes express both the AT-1 and the AT-2 receptor at relevant levels making these cells an ideal model to test the interference of both receptors with basal and insulin-mediated glucose uptake. L6 myoblasts were maintained as proliferating myoblasts in DMEM high glucose medium supplemented with 10% FCS, 4 mM L-glutamine, 1 mM pyruvate at 37°C in the presence of 5% CO2. The seeding density used for the experiments was 2 x 10^4 cells/cm^2 on 1% gelatincoated dishes. To induce differentiation of myoblasts into myotubes, 90-100% confluent cultures (cultured on standard 6-well plates) were switched to DMEM supplemented with 2% adult horse serum. […] The uptake of H-3-labeled 2-Deoxy-D-glucose (GE Healthcare Biosciences), which cannot undergo further glycolysis, was measured as follows: • H-3-labeled 2-Deoxy-D-glucose uptake in the differentiated myotubes was analysed as described previously ([…] et al., Diabetologia (2005); 48 (1) :132-9) with minor modifications. […] Cell lysates were transferred to scintillation vials for radioactivity counting. Non-specific uptake was determined in the presence of cytochalasin B (10 μmol/L) and was subtracted from all values. […] The uptake of H-3-labeled 2-Deoxy-D-glucose was measured as described in Example 1 above."}, "[4]": {"details": "PD 123319 10^-7 mol/L added to angiotensin II 10^-7 mol/L + losartan 10^-7 mol/L"}},
  "note": "Side chains are listed from the residue outwards. Peptide text beside a SMILES is read from it. * marks the point of attachment. Nicotinoyl = O=C(c1cccnc1)*; Cbz = O=C(OCc1ccccc1)*",
  "data": [
    {"smiles": "Cc1cc(Cn2cnc3c2CC(C(=O)O)N(C(=O)C(c2ccccc2)c2ccccc2)C3)ccc1N(C)C", "note": "(stereo not shown) [PD123319]", "values": [
      {"measurement": "effect on the CGP-42112A-induced glucose uptake", "setting": "L6 myotubes [1]; PD 123319 10^-7 mol/L added to CGP-42112A 10^-8 mol/L + losartan 10^-7 mol/L", "value": "completely blocked"},
      {"measurement": "effect on the glucose uptake enhanced by angiotensin II in the presence of losartan", "setting": "L6 myotubes [1]; [4]", "value": "inhibited"},
      {"measurement": "uptake of H-3-labeled 2-Deoxy-D-glucose", "setting": "L6 myotubes [1]; substance alone, 10^-7 mol/L, L6 myotubes, n=9-12", "value": "did not affect"},
      {"measurement": "effect on the glucose uptake enhanced by angiotensin II in the presence of losartan", "setting": "L6 myotubes [2]; [4]", "value": "completely absent"}
    ]},
    {"smiles": "CCCCc1nc(Cl)c(CO)n1Cc1ccc(-c2ccccc2-c2nn[nH]n2)cc1", "note": "[losartan]", "values": [
      {"measurement": "basal glucose uptake of L6 myotubes", "setting": "L6 myotubes [2]; losartan 10^-7 mol/L alone", "value": "induced"},
      {"measurement": "insulin-mediated glucose uptake of L6 myotubes", "setting": "L6 myotubes [2]; losartan 10^-7 mol/L alone, insulin 1 µg/ml", "value": "induced"}
    ]},
    {"smiles": "CC[C@H](C)[C@H](NC(=O)[C@@H]1CCCN1C(=O)[C@H](Cc1c[nH]cn1)NC(=O)[C@H](CCCCNC(=O)[C@H](CCCNC(=N)N)NC(=O)OCc1ccccc1)NC(=O)[C@H](Cc1ccc(O)cc1)NC(=O)c1cccnc1)C(=O)O", "note": "[CGP-42112A] (Nicotinoyl-YK([Arg-Cbz])HPI-OH)", "values": [
      {"measurement": "glucose uptake compared with the effect of angiotensin II", "setting": "L6 myotubes [3]", "value": "mimicked"}
    ]}
  ]
}
